In PMC11268196, “Biochemical characterization of ClpB and DnaK from Anaplasma phagocytophilum” (Cell Stress & Chaperones, 2024):

Tests used:
[1] = target: T1, ApK (A. phagocytophilum DnaK) (Anaplasma phagocytophilum, UniProt Q2GKZ8); assay: fluorescence anisotropy of FITC-labeled peptide B2 (nucleotide effect on peptide binding); settings: 2 mM ADP; indirect read-out through labelled peptide B2
T1 sequence (Q2GKZ8 1-645): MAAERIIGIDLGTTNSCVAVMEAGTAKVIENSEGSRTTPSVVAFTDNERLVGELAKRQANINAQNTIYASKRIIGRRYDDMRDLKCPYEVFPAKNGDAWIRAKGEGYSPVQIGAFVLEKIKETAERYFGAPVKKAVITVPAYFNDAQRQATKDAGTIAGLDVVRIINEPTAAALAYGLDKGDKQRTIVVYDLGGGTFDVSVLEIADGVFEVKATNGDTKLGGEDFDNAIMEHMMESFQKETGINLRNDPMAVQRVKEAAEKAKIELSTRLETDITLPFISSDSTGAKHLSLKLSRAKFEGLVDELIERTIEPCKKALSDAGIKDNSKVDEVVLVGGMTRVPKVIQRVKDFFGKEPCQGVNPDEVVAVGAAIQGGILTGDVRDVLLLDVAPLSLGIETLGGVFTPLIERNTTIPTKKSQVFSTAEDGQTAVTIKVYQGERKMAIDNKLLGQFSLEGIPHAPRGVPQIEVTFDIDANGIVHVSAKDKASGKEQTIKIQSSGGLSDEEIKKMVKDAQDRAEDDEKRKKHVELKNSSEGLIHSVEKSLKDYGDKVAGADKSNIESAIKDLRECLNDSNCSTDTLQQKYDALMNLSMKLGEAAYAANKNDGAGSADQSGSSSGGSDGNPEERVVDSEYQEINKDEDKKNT

EcB (E. coli ClpB) = EcB (E. coli ClpB) (Escherichia coli, UniProt P63284); assay: malachite green phosphate release (ATPase); type: biochemical; settings: 5 mM ATP, 20 mM MgCl2, pH 7.4, 37 °C; basal (no casein or poly-lysine)
[2] = target: T1, ApK (A. phagocytophilum DnaK); assay: malachite green phosphate release (ATPase); type: biochemical; settings: 5 mM ATP, 20 mM MgCl2, pH 7.4, 37 °C; basal (no casein or poly-lysine)
EcK (E. coli DnaK) = EcK (E. coli DnaK) (Escherichia coli, UniProt P0A6Y8); settings: 5 mM ATP, 20 mM MgCl2, pH 7.4, 37 °C; basal (no casein or poly-lysine)
[3] = target: T2, ApB (A. phagocytophilum ClpB) (Anaplasma phagocytophilum, UniProt Q2GL99); settings: 5 mM ATP, 20 mM MgCl2, pH 7.4, 37 °C; basal (no casein or poly-lysine)
T2 sequence (Q2GL99 1-859): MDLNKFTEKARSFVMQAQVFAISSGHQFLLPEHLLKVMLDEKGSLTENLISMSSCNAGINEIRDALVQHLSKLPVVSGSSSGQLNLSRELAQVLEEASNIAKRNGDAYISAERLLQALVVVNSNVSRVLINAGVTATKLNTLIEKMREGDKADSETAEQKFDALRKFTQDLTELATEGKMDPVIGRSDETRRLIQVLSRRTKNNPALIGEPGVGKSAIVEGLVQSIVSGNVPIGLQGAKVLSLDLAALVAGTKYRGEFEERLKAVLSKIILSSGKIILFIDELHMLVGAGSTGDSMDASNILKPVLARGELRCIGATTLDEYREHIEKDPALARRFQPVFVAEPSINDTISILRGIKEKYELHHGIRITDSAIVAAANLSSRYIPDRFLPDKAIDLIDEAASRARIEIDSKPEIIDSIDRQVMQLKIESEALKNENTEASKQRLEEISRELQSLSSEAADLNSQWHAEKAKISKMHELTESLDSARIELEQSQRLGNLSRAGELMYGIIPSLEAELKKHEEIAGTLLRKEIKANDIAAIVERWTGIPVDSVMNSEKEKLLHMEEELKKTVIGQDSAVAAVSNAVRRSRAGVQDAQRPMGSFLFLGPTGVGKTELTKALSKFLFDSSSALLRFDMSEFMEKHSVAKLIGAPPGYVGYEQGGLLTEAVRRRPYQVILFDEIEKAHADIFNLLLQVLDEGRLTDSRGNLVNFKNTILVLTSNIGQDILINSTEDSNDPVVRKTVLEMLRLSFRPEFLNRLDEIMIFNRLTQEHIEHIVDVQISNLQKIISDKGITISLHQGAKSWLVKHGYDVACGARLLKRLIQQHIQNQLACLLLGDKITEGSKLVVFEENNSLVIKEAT

Sequence of EcK (E. coli DnaK) (P0A6Y8 2-638): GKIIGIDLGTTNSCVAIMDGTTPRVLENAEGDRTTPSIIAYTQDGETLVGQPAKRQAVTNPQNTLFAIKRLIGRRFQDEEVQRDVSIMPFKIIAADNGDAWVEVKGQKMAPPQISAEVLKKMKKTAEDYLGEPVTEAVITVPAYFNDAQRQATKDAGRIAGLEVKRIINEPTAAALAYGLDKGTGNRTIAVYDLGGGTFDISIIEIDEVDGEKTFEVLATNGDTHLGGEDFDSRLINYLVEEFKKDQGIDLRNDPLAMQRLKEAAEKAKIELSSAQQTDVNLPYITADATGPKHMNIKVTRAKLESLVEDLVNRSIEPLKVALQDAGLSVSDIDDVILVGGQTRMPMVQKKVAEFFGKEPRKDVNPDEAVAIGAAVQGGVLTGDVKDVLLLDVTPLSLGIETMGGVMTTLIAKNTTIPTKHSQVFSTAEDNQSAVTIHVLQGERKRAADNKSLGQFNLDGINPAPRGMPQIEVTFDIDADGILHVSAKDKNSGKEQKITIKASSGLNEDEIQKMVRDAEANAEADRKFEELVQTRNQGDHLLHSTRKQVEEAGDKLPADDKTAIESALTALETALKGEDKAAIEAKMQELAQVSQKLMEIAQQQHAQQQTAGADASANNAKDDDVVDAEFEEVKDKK
Sequence of EcB (E. coli ClpB) (P63284 whole entry): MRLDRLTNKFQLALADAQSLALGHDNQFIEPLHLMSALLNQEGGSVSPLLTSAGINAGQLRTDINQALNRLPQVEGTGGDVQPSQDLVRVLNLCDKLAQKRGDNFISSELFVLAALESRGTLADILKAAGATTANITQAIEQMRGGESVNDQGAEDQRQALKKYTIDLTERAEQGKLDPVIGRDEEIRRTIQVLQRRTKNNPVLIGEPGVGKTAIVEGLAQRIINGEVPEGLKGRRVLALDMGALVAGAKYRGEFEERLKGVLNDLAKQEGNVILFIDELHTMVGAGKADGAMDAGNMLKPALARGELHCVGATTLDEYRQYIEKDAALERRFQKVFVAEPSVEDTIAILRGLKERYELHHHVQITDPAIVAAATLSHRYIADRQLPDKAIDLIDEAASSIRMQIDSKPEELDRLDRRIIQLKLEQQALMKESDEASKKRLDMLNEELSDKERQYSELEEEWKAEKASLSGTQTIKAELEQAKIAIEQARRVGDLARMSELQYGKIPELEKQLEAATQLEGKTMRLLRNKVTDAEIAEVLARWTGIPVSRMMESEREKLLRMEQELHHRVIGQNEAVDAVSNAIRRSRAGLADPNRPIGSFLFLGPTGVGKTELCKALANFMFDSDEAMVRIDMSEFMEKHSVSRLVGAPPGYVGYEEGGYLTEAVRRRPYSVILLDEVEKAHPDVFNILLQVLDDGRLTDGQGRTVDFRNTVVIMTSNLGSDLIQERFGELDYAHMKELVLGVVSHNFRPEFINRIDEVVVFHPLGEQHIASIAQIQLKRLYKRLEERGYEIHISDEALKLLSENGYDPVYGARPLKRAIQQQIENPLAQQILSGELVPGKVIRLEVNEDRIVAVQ

SMILES: Nc1ncnc2c1ncn2[C@@H]1O[C@H](COP(=O)(O)OP(=O)(O)O)[C@@H](O)[C@H]1O [ADP]
- fluorescence anisotropy of FITC-labeled peptide B2 (nucleotide effect on peptide) [1]: ADP induced a strong binding of B2 to ApK

SMILES: Nc1ncnc2c1ncn2[C@@H]1O[C@H](COP(=O)(O)OP(=O)(O)OP(=O)(O)O)[C@@H](O)[C@H]1O [ATP]
- ATPase activity (EcB (E. coli ClpB)): the basal ATPase activity of ApB exceeded that of EcB
- ATPase activity [2]: The basal ATPase activity of ApK was lower than that of EcK
- ATPase activity (EcK (E. coli DnaK)): The basal ATPase activity of ApK was lower than that of EcK
- ATPase activity [3]: the basal ATPase activity of ApB exceeded that of EcB
